Where two headings read alike, the source gives them in different places.
Experiment: Mouse blood and tissue PK (LC/MS-MS)
Assay type: in vivo
Settings: mouse; for concentration at 2 h / concentration at 24 h / concentration at 4 h / concentration at 8 h / concentration at 48 h / Kp: oral; for concentration at 2 h / concentration at 24 h / concentration at 4 h / concentration at 8 h / concentration at 48 h: read-out: RMC-6236 (nM) Tumor; for Kp: tumor relative to whole blood, read-out: Tumor/Blood AUC Ratio; for AUC(0-t): read-out: Blood AUClast
Method: For single-dose PKPD study, mice were randomized and assigned into groups (n = 3/dose/time point). […] Blood and tissues, including the tumor, brain, colon, ear skin, and muscle, were harvested at indicated time points. […] The whole blood, tumor, brain, colon, and ear skin concentrations of RMC-6236 were determined using liquid chromatography–tandem mass spectrometry (LC/MS-MS) methods. […] After thorough mixing and centrifugation, the supernatant was diluted with water or directly analyzed on a Sciex 5500 or Sciex 6500+ triple quadrupole mass spectrometer equipped with an ACQUITY or Shimadzu UPLC system. […] Bioanalysis on blood and tissue samples from xenograft models was run at Pharmaron and Wuxi AppTec. Concentrations reported as below the quantification limit were treated as zero for PK analysis. PK parameters were calculated by noncompartmental analysis of the concentration–time profiles using Phoenix WinNonLin (version 8.3 Certara). Apparent terminal elimination half-life (t1/2) values were calculated as ln(2)/k, where k represents the terminal elimination rate constant. Area under the concentration–time curve (AUC) values were estimated using a linear trapezoidal method. AUClast values were calculated from the dosing time to the last quantifiable concentration. Maximum concentration (Cmax) was recorded as observed.

[1] = BALB/c nude, ear skin, 3 mg/kg, sheet Ear Skin, model Capan-2, study Capan-2 #3_PHA 2023, 3 mg/kg
[2] = BALB/c nude, ear skin, 10 mg/kg, sheet Ear Skin, model Capan-2, study Capan-2 #3_PHA 2023, 10 mg/kg
[3] = BALB/c nude, ear skin, 25 mg/kg, sheet Ear Skin, model Capan-2, study Capan-2 #3_PHA 2023, 25 mg/kg
[4] = BALB/c nude, ear skin, 50 mg/kg, sheet Ear Skin, model Capan-2, study Capan-2 #3_PHA 2023, 50 mg/kg
[5] = BALB/c nude, ear skin, 100 mg/kg, sheet Ear Skin, model Capan-2, study Capan-2 #3_PHA 2023, 100 mg/kg
[6] = BALB/c nude, tumor, 0.3 mg/kg, Capan-2, study Capan-2 #3_PHA 2020, 0.3 mg/kg
[7] = BALB/c nude, tumor, 3 mg/kg, Capan-2, study Capan-2 #3_PHA 2020, 3 mg/kg
[8] = BALB/c nude, tumor, 3 mg/kg, Capan-2, study Capan-2 #3_PHA 2023, 3 mg/kg
[9] = BALB/c nude, tumor, 10 mg/kg, Capan-2, study Capan-2 #3_PHA 2020, 10 mg/kg
[10] = BALB/c nude, tumor, 10 mg/kg, Capan-2, study Capan-2 #3_PHA 2023, 10 mg/kg
[11] = BALB/c nude, tumor, 10 mg/kg, sheet colon, Capan-2, Capan-2 #3_PHA 2023, 10 mg/kg
[12] = BALB/c nude, tumor, 25 mg/kg, Capan-2, study Capan-2 #3_PHA 2020, 25 mg/kg
[13] = BALB/c nude, tumor, 25 mg/kg, Capan-2, study Capan-2 #3_PHA 2023, 25 mg/kg
[14] = BALB/c nude, tumor, 25 mg/kg, sheet colon, Capan-2, Capan-2 #3_PHA 2023, 25 mg/kg
[15] = BALB/c nude, tumor, 40 mg/kg, Capan-2, study Capan-2 #3_PHA 2020, 40 mg/kg
[16] = BALB/c nude, tumor, 50 mg/kg, Capan-2, study Capan-2 #3_PHA 2023, 50 mg/kg
[17] = BALB/c nude, tumor, 50 mg/kg, sheet colon, Capan-2, Capan-2 #3_PHA 2023, 50 mg/kg
[18] = BALB/c nude, tumor, 100 mg/kg, Capan-2, study Capan-2 #3_PHA 2023, 100 mg/kg
[19] = BALB/c nude, tumor, 100 mg/kg, sheet colon, Capan-2, Capan-2 #3_PHA 2023, 100 mg/kg
[20] = BALB/c nude, whole blood, po, 3 mg/kg, Capan-2 (3 mg/kg), single dose
[21] = BALB/c nude, whole blood, po, 10 mg/kg, Capan-2 (10 mg/kg), single dose
[22] = BALB/c nude, whole blood, po, 25 mg/kg, Capan-2 (25 mg/kg), single dose
[23] = Balb/c nude, whole blood, po, 25 mg/kg, LU99-luc IC #2 (25 mg/kg), single dose

In the case of `CCn1c(-c2cc(N3CCN(C)CC3)cnc2[C@H](C)OC)c2c3cc(ccc31)-c1csc(n1)C[C@H](NC(=O)[C@H]1C[C@@H]1C)C(=O)N1CCC[C@H](N1)C(=O)OCC(C)(C)C2` [RMC-6236], the concentration at 2 h (BALB/c nude, colon, 3 mg/kg, sheet colon, Capan-2, Capan-2 #3_PHA 2023, 3 mg/kg) is reported as 1370 nM, the concentration at 2 h (BALB/c nude, colon, 25 mg/kg, sheet colon, Capan-2, Capan-2 #3_PHA 2023, 25 mg/kg) is reported as 5810 nM and the concentration at 24 h (BALB/c nude, colon, 50 mg/kg, sheet colon, Capan-2, Capan-2 #3_PHA 2023, 50 mg/kg) is reported as 147 nM. The concentration at 24 h (BALB/c nude, colon, 100 mg/kg, sheet colon, Capan-2, Capan-2 #3_PHA 2023, 100 mg/kg) was 531 nM, the concentration at 2 h [1] was 175 nM and the concentration at 4 h [1] was 255 nM. For the same compound, the concentration at 8 h [1] was 195 nM, the concentration at 24 h [1] was 48.3 nM and the concentration at 2 h [2] was 469 nM. The concentration at 4 h [2] was 883 nM, the concentration at 8 h [2] was 1080 nM and the concentration at 24 h [2] was 219 nM. The concentration at 48 h [2] was 41.6 nM, the concentration at 2 h [3] was 1640 nM and the concentration at 4 h [3] was 2370 nM. For the same compound, the concentration at 8 h [3] was 1360 nM, the concentration at 24 h [3] was 512 nM and the concentration at 48 h [3] was 147 nM. For the same compound, the concentration at 2 h [4] was 5540 nM, the concentration at 4 h [4] was 7670 nM and the concentration at 8 h [4] was 4410 nM. The concentration at 24 h [4] was 1110 nM, the concentration at 48 h [4] was 276 nM and the concentration at 2 h [5] was 12300 nM. For the same compound, the concentration at 8 h [5] was 6560 nM, the concentration at 24 h [5] was 2500 nM and the Kp (BALB/c nude, 3 mg/kg, Capan-2 (3 mg/kg), single dose) was 3.3. The Kp (BALB/c nude, 10 mg/kg, Capan-2 (10 mg/kg), single dose) was 4.6, the Kp (BALB/c nude, 25 mg/kg, Capan-2 (25 mg/kg), single dose) was 5.8 and the concentration at 2 h [6] was 15.2 nM. The concentration at 8 h [6] was 14.8 nM, the concentration at 24 h [6] was 5.5 nM and the concentration at 2 h [7] was 314 nM. It also gave a concentration at 8 h [7] of 136 nM, a concentration at 24 h [7] of 67 nM and a concentration at 48 h [7] of 22 nM. It also gave a concentration at 2 h [8] of 148 nM, a concentration at 4 h [8] of 290 nM and a concentration at 8 h [8] of 231 nM. For the same compound, the concentration at 24 h [8] was 109 nM, the concentration at 48 h [8] was 48.6 nM and the concentration at 8 h (BALB/c nude, tumor, 3 mg/kg, sheet colon, Capan-2, Capan-2 #3_PHA 2023, 3 mg/kg) was 567 nM. The concentration at 2 h [9] was 671 nM, the concentration at 8 h [9] was 829 nM and the concentration at 24 h [9] was 406 nM. For the same compound, the concentration at 48 h [9] was 101 nM, the concentration at 2 h [10] was 630 nM and the concentration at 4 h [10] was 1230 nM. It also gave a concentration at 8 h [10] of 1120 nM, a concentration at 24 h [10] of 563 nM and a concentration at 48 h [10] of 142 nM. The concentration at 4 h [11] was 3110 nM, the concentration at 8 h [11] was 1860 nM and the concentration at 24 h [11] was 40.6 nM. It also gave a concentration at 2 h [12] of 2200 nM, a concentration at 8 h [12] of 2400 nM and a concentration at 24 h [12] of 1250 nM. For the same compound, the concentration at 2 h [13] was 2210 nM, the concentration at 4 h [13] was 3050 nM and the concentration at 8 h [13] was 2290 nM. It also gave a concentration at 24 h [13] of 1130 nM, a concentration at 4 h [14] of 6440 nM and a concentration at 8 h [14] of 3260 nM. It also gave a concentration at 2 h [15] of 3660 nM, a concentration at 8 h [15] of 3360 nM and a concentration at 24 h [15] of 1740 nM. For the same compound, the concentration at 2 h [16] was 4650 nM, the concentration at 4 h [16] was 5600 nM and the concentration at 8 h [16] was 5310 nM. The concentration at 24 h [16] was 2520 nM, the concentration at 2 h [17] was 21800 nM and the concentration at 4 h [17] was 10600 nM. It also gave a concentration at 2 h [18] of 10400 nM, a concentration at 4 h [18] of 17300 nM and a concentration at 8 h [18] of 7500 nM. The concentration at 24 h [18] was 4270 nM, the concentration at 48 h [18] was 1150 nM and the concentration at 2 h [19] was 25300 nM. It also gave a concentration at 4 h [19] of 30100 nM, a half-life (BALB/c nude, tumor, po, 3 mg/kg, Capan-2 (3 mg/kg), single dose, read-out: Tumor t1/2 (converted)) of 16.6 h and a half-life (BALB/c nude, tumor, po, 10 mg/kg, Capan-2 (10 mg/kg), single dose, read-out: Tumor t1/2 (converted)) of 15.7 h. It also gave a half-life (BALB/c nude, tumor, po, 25 mg/kg, Capan-2 (25 mg/kg), single dose, read-out: Tumor t1/2 (converted)) of 14 h, a Cmax [20] of 252 ng/mL and an AUC(0-t) [20] of 1560 ng·h/mL. The Cmax [21] was 950 ng/mL, the AUC(0-t) [21] was 5090 ng·h/mL and the half-life (BALB/c nude, whole blood, po, 10 mg/kg, Capan-2 (10 mg/kg), single dose, read-out: Blood t1/2 (converted)) was 3.77 h. The Cmax [22] was 2920 ng/mL, the AUC(0-t) [22] was 11600 ng·h/mL and the half-life (BALB/c nude, whole blood, po, 25 mg/kg, Capan-2 (25 mg/kg), single dose, read-out: Blood t1/2 (converted)) was 2.77 h. For the same compound, the half-life (Balb/c nude, tumor (intracranial), po, 25 mg/kg, LU99-luc IC (25 mg/kg), intracranial tumor, read-out: Tumor t1/2 (converted)) was 16.1 h, the half-life (Balb/c nude, tumor (subcutaneous xenograft), sc, 25 mg/kg, LU99-luc SC (25 mg/kg), subcutaneous xenograft tumor, read-out: Tumor t1/2 (converted)) was 25.3 h and the Cmax [23] was 2020 ng/mL. The AUC(0-t) [23] was 14000 ng·h/mL and the Cmax (Balb/c nude, whole blood, po, 25 mg/kg, LU99-luc IC (25 mg/kg), single dose) was 2500 ng/mL.

From PMC11149917, “Translational and Therapeutic Evaluation of RAS-GTP Inhibition by RMC-6236 in RAS-Driven Cancers” (Cancer Discovery, 2024)
